Results reported in patent publication US9963462B2 (priority 2015, dated 2018).

Legend:
[1] = tested on: BH4 production in human peripheral blood mononuclear cells (PBMCs); assay: hPBMC assay, inhibition of BH4 production by LC-MS (anti-CD3/anti-CD28 stimulated); type: cell-based; conditions: PBMC, read-out: hPBMC IC50
Experimental: hPBMC Assay: PBMCs were either purchased or isolated from fresh human blood and used either as a fresh preparation or frozen for later use. The assay system was prepared by pre-treating the assay plates overnight with a solution containing anti-human CD3 antibody. Human PBMCs were suspended in assay medium and plated into the assay plates at a density of 1-4×10^5 cells per well. The desired concentration of the test compound was added to each well. A solution of human anti-CD28 antibody was also added to each well. Plates were incubated for 12-48 hours at 37° C. and 5% CO2. Assay plates were centrifuged for 5-15 minutes at 1-3000 RMP and supernatants were removed. The cells were lysed, sealed and used directly or frozen at −80° C. LC-MS was used to quantify the amount of inhibition of BH4 production.
PBMCs were either purchased or isolated from fresh human blood and used either as a fresh preparation or frozen for later use. The assay system was prepared by pre-treating the assay plates overnight with a solution containing anti-human CD3 antibody. Human PBMCs were suspended in assay medium and plated into the assay plates at a density of 1-4×10^5 cells per well. The desired concentration of the test compound was added to each well. A solution of human anti-CD28 antibody was also added to each well. Plates are incubated for 12-48 hours at 37° C. and 5% CO2. Assay plates were centrifuged for 5-15 minutes at 1-3000 RMP and supernatants were removed. The cells were lysed, sealed and used directly or frozen at −80° C.

[2] = target: SNAP-hSPR (sepiapterin reductase, SPR) (Homo sapiens, UniProt P35270); assay: biochemical; type: binding; conditions: terbium labelled SNAP-hSPR / SSZ labelled SNAP-EGFP; read-out: hTR-FRET IC50
SNAP-hSPR (sepiapterin reductase, SPR), sequence (P35270 whole entry): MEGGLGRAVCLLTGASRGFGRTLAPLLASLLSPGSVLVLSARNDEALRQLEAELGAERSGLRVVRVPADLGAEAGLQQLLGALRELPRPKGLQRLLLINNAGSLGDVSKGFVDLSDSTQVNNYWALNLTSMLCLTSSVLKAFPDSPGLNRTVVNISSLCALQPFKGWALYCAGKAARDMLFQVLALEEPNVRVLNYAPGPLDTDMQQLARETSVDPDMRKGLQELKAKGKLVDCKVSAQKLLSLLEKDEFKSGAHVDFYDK

Compound | IC50 [1] | IC50 [2]
C=CCC(C#N)C1CCN(C(=O)c2cnn(-c3nc4c(c(=O)[nH]3)CCC4)c2C)CC1 (stereo not shown) [Q-1073] | 55 nM | 3 nM
Cc1c(C(=O)N2CCC(c3nc(C(F)(F)F)cs3)CC2)cnn1-c1nn2cccc2c(=O)[nH]1 [Q-1108] | 50 nM | 1 nM
Cc1c(C(=O)N2CCN(c3ncc(-c4cccnc4)o3)CC2)cnn1-c1nn2cccc2c(=O)[nH]1 [Q-1162] | 95 nM | 1 nM
Cc1c(C(=O)N2CCN(c3ncc(-c4ccccc4Cl)o3)CC2)cnn1-c1nn2cccc2c(=O)[nH]1 [Q-1151] | 310 nM | 8 nM
Cc1c(C(=O)N2CCN(S(=O)(=O)c3ccccc3OC(F)(F)F)CC2)cnn1-c1nn2cccc2c(=O)[nH]1 [Q-1861] | 98 nM | 1 nM
C=C(C1CCN(C(=O)c2cnn(-c3nn4cccc4c(=O)[nH]3)c2C)CC1)C(F)(F)F [Q-1095] | 27 nM | 1 nM
Cc1c(C(=O)N2C3CC2CN(CC(F)(F)F)C3)cnn1-c1nn2cccc2c(=O)[nH]1 [Q-1083] | 68 nM | 1 nM
Cc1c(C(=O)N2CCC(C(CCF)C(F)(F)F)CC2)cnn1-c1nn2cccc2c(=O)[nH]1 (stereo not shown) [Q-1141] | 19 nM | 1 nM
Cc1c(C(=O)N2CCC2c2ccc(Cl)cc2)cnn1-c1nn2cccc2c(=O)[nH]1 (stereo not shown) [Q-1071] | 32 nM | 6 nM
Cc1c(C(=O)N2CC(c3ccc(F)nc3)C2)cnn1-c1nn2cccc2c(=O)[nH]1 [Q-1144] | 70 nM | 1 nM
CCCC(=O)C1CCN(C(=O)c2cnn(-c3nn4cccc4c(=O)[nH]3)c2C)CC1 [Q-1207] | 29 nM | 1 nM
Cc1c(C(=O)N2CCN(c3nc(-c4ccc(F)nc4)cs3)CC2)cnn1-c1nn2cccc2c(=O)[nH]1 [Q-1180] | 47 nM | 2 nM
Cc1c(C(=O)N2CC(c3ccnc(C(F)(F)F)c3)C2)cnn1-c1nn2cccc2c(=O)[nH]1 [Q-2009] | 370 nM | 2 nM
Cc1c(C(=O)N2CC3CC(C2)N3CC(F)(F)F)cnn1-c1nc2cc[nH]c2c(=O)[nH]1 [Q-1291] | 2400 nM | 200 nM
Cc1c(C(=O)N2CCc3nc(-c4ccc(F)cc4)sc3C2)cnn1-c1nn2cccc2c(=O)[nH]1 [Q-1160] | 110 nM | 3 nM
Cc1c(C(=O)N2C[C@H]3CCC[C@@H](C2)[C@@H]3CC(F)(F)F)cnn1-c1nn2cccc2c(=O)[nH]1 [Q-1199] | 29 nM | 1 nM
O=C(c1cn(-c2nn3cccc3c(=O)[nH]2)nn1)N1CCN(C2CCC2)CC1 [Q-1244] | 36 nM | 1 nM
CC[C@@H](C#N)C1CCN(C(=O)c2cnn(-c3nc4c(c(=O)[nH]3)CCC4)c2C)CC1 [Q-1072] | 55 nM | 2 nM
Cc1c(C(=O)N2CCN(S(=O)(=O)N(C)C)CC2)cnn1-c1nn2cccc2c(=O)[nH]1 [Q-1846] | 170 nM | 1 nM
Cc1c(C(=O)N2CCN(S(=O)(=O)c3ccccc3)CC2)cnn1-c1nn2cccc2c(=O)[nH]1 [Q-1535] | 110 nM | 1 nM
Cc1nn(-c2nn3cccc3c(=O)[nH]2)cc1C(=O)N1CCN(CC(F)(F)F)CC1 [Q-1125] | 100 nM | 6 nM
Cc1c(C(=O)N2CCC(CCCF)C2)cnn1-c1nn2cccc2c(=O)[nH]1 (stereo not shown) [Q-1098] | 210 nM | 1 nM
Cc1c(C(=O)N2CCN(c3nc(-c4ccc(C#N)cc4)cs3)CC2)cnn1-c1nn2cccc2c(=O)[nH]1 [Q-1210] | 84 nM | 2 nM
Cc1c(C(=O)N2CCN(S(=O)(=O)C3CCCCC3)CC2)cnn1-c1nn2cccc2c(=O)[nH]1 [Q-1818] | 95 nM | 1 nM
Cc1c(C(=O)N2CC3(C2)CC(F)(F)C3)cnn1-c1nc2[nH]ccc2c(=O)[nH]1 [Q-1263] | 370 nM | 100 nM
Cc1c(C(=O)N2CCn3cccc3C2)cnn1-c1nn2cccc2c(=O)[nH]1 [Q-1925] | 170 nM | 1 nM
